Assay results reported in patent publication US11001564B2, “Substituted chromane-8-carboxamide compounds and analogues thereof, and methods using same” (priority 2016, dated 2021).

What follows are compounds tested on HBV rcDNA in HepDE19 cells (assay: HepDE19 assay with bDNA quantitation of HBV rcDNA). Details: HepDE19 cells, 7 day incubation, rcDNA by Quantigene 2.0 bDNA assay; read-out: DE-19 bDNA EC50.
Type: cell-based, hepatitis B virus (HBV)
Description: HepDE19 Assay with bDNA Quantitation of HBV rcDNA:
HepDE19 cell culture system is a HepG2 (human hepatocarcinoma) derived cell line that supports HBV DNA replication and cccDNA formation in a tetracycline (Tet)-regulated manner and produces HBV rcDNA and a detectable reporter molecule dependent on the production and maintenance of cccDNA (Guo, et al., 2007, J. Virol. 81:12472-12484).
HepDE19 (50,000 cells/well) were plated in 96 well collagen-coated tissue-culture treated microtiter plates in DMEM/F12 medium supplemented with 10% fetal bovine serum, 1% penicillin-streptomycin and 1 μg/mL tetracycline and incubated in a humidified incubator at 37° C. and 5% CO2 overnight. Next day, the cells were switched to fresh medium without tetracycline and incubated for 4 hours at 37° C. and 5% CO2. The cells were treated with fresh Tet-free medium with compounds at concentrations starting at 25 μM and a serial, ½ log, 8-point, titration series in duplicate. The final DMSO concentration in the assay was 0.5%. The plates were incubated for 7 days in a humidified incubator at 37° C. and 5% CO2. Following a 7 day-incubation, the level of rcDNA present in the inhibitor-treated wells was measured using a Quantigene 2.0 bDNA assay kit (Affymetrix, Santa Clara, Calif.) with HBV specific custom probe set and manufacturers instructions. Concurrently, the effect of compounds on cell viability was assessed using replicate plates, plated at a density of 5,000 cells/well and incubated for 4 days, to determine the ATP content as a measure of cell viability using the cell-titer glo reagent (CTG; Promega Corporation, Madison, Wis.) as per manufacturer's instructions. The plates were read using a Victor luminescence plate reader (PerkinElmer Model 1420 Multilabel counter) and the relative luminescence units (RLU) data generated from each well was calculated as % inhibition of the untreated control wells and analyzed using XL-Fit module in Microsoft Excel to determine EC50 and EC90 (bDNA) and CC50 (CTG) values using a 4-parameter curve fitting algorithm.
Representative compounds of the invention were tested for their ability to inhibit formation of relaxed circular DNA (rcDNA) in a HepDE19 assay, as described elsewhere herein.

In order of rising EC50:
1. CN1CCC(NC(=O)OCc2ccccn2)c2cccc(C(=O)Nc3ccc(F)c(Cl)c3)c21 (single isomer, unassigned) [Compound 183, Pyridin-2-ylmethyl (8-((3-chloro-4-fluorophenyl)carbamoyl)-1-methyl-1,2,3,4-tetrahydroquinolin-4-yl)carbamate]  0.72 µM
2. COC1CCOc2c(C(=O)Nc3ccc(F)c(F)c3)cccc21 (single isomer, unassigned) [Compound 7, N-(3,4-difluorophenyl)-4-methoxychromane-8-carboxamide]  1.8 µM
3. CN1CCC(NC(=O)OCc2ccccn2)c2cccc(C(=O)Nc3ccc(F)c(F)c3)c21 (single isomer, unassigned) [Compound 181, Pyridin-2-ylmethyl (8-((3,4-difluorophenyl)carbamoyl)-1-methyl-1,2,3,4-tetrahydroquinolin-4-yl)carbamate]  2.5 µM
4. COC1CCOc2c(C(=O)Nc3ccc(F)c(F)c3)cccc21 (single isomer, unassigned) [Compound 6, N-(3,4-difluorophenyl)-4-methoxychromane-8-carboxamide]  4.3 µM
5. CN1CCC(NC(=O)OCc2ccccn2)c2cccc(C(=O)Nc3ccc(F)c(Cl)c3)c21 (single isomer, unassigned) [Compound 182, Pyridin-2-ylmethyl (8-((3-chloro-4-fluorophenyl)carbamoyl)-1-methyl-1,2,3,4-tetrahydroquinolin-4-yl)carbamate]  12 µM
6. O=C(N[C@H]1CCOc2c(C(=O)Nc3ccc(F)c(F)c3)cccc21)OCC1CCCCN1 (single isomer, unassigned) [Compound 86]  15 µM
7. CN1CCC(NC(=O)OCc2ccccn2)c2cccc(C(=O)Nc3ccc(F)c(F)c3)c21 (single isomer, unassigned) [Compound 180, Pyridin-2-ylmethyl (8-((3,4-difluorophenyl)carbamoyl)-1-methyl-1,2,3,4-tetrahydroquinolin-4-yl)carbamate]  15 µM
8. O=C(N[C@H]1CCOc2c(C(=O)Nc3ccc(F)c(F)c3)cccc21)OCC1CCNC1 (single isomer, unassigned) [Compound 109]  21 µM
9. CNC(=O)CC1CCOc2c(C(=O)Nc3ccc(F)c(F)c3)cccc21 (single isomer, unassigned) [Compound 132, N-(3,4-difluorophenyl)-4-(2-(methylamino)-2-oxoethyl) chromane-8-carboxamide]  21 µM
10. O=C(N[C@H]1CCOc2c(C(=O)Nc3ccc(F)c(F)c3)cccc21)OCC1CCCNC1 (single isomer, unassigned) [Compound 94]  22 µM
11. O=C(Nc1ccc(F)c(F)c1)c1cccc2c1OCCC2c1ccncc1 (single isomer, unassigned) [Compound 70, N-(3,4-Difluorophenyl)-4-(pyridin-4-yl)chromane-8-carboxamide]  23 µM
12. CN1CCCC(COC(=O)N[C@H]2CCOc3c(C(=O)Nc4ccc(F)c(F)c4)cccc32)C1 (single isomer, unassigned) [Compound 99]  25 µM

Same assay, conditions: Hepatitis B virus, HepDE19, 168 h, HepDE19 cells, 7 day incubation, rcDNA by Quantigene 2.0 bDNA assay; read-out: DE-19 bDNA EC50

In order of falling EC50:
1. CN1CCCC(COC(=O)N[C@H]2CCOc3c(C(=O)Nc4ccc(F)c(F)c4)cccc32)C1 (single isomer, unassigned) [Compound 98]  23 µM
2. O=C(Nc1cccc(Cl)c1)c1cccc2c1OCCC2 [Compound 1, N-(3-chlorophenyl)chromane-8-carboxamide]  23 µM
3. O=C(N[C@H]1CCOc2c(C(=O)Nc3ccc(F)c(F)c3)cccc21)OCC1CCNC1 (single isomer, unassigned) [Compound 108]  21 µM
4. CNC(=O)CC1CCOc2c(C(=O)Nc3ccc(F)c(F)c3)cccc21 (single isomer, unassigned) [Compound 131, N-(3,4-difluorophenyl)-4-(2-(methylamino)-2-oxoethyl) chromane-8-carboxamide]  20 µM
5. O=C(N[C@H]1CCOc2c(C(=O)Nc3ccc(F)c(F)c3)cccc21)OCC1CCCCN1 (single isomer, unassigned) [Compound 85]  19 µM
6. O=C(N[C@H]1CCOc2c(C(=O)Nc3ccc(F)c(F)c3)cccc21)OCC1CCCNC1 (single isomer, unassigned) [Compound 87]  16 µM
7. O=C(Nc1ccc(F)c(F)c1)c1cccc2c1OCCC2c1ccncc1 (single isomer, unassigned) [Compound 69, N-(3,4-Difluorophenyl)-4-(pyridin-4-yl)chromane-8-carboxamide]  12 µM
8. CC(C)NS(=O)(=O)N[C@H]1CCOc2c(C(=O)Nc3ccc(F)c(F)c3)cccc21 (stereo in doubt) [Compound 15]  9.7 µM
9. O=C(N[C@H]1CCOc2c(C(=O)Nc3ccc(F)c(F)c3)cccc21)c1cncs1 [Compound 12, N-(8-((3,4-difluorophenyl)carbamoyl)chroman-4-yl)thiazole-5-carboxamide]  8.3 µM
10. CCC(=O)N[C@H]1CCOc2c(C(=O)Nc3ccc(F)c(F)c3)cccc21 [Compound 10, N-(3,4-Difluorophenyl)-4-propionamidochromane-8-carboxamide]  5.8 µM
11. O=C(Nc1ccc(F)c(F)c1)c1cccc2c1OCC[C@@H]2O [Compound 5, (S)-N-(3,4-difluorophenyl)-4-hydroxychromane-8-carboxamide]  3.9 µM
12. O=C(Nc1ccc(F)c(F)c1)c1cccc2c1OCCC2O (stereo not drawn) [Compound 3, N-(3,4-difluorophenyl)-4-hydroxychromane-8-carboxamide]  3.4 µM
13. O=C1CCOc2c1cccc2C(=O)Nc1ccc(F)c(F)c1 [Compound 2, N-(3,4-difluorophenyl)-4-oxochromane-8-carboxamide]  2.3 µM
14. O=C(Nc1ccc(F)c(F)c1)c1cccc2c1OCC[C@H]2O [Compound 4, (R)-N-(3,4-difluorophenyl)-4-hydroxychromane-8-carboxamide]  2.2 µM

Same assay, conditions: Hepatitis B virus, HepDE19, 168 h, read-out: DE-19 bDNA EC50, HepDE19 cells, 7 day incubation, rcDNA by Quantigene 2.0 bDNA assay

In order of falling EC50:
1. COC(=O)N[C@@H]1CCOc2c(C(=O)Nc3ccc(F)c(F)c3)cccc21 [Compound 11, methyl (R)-(8-((3,4-difluorophenyl)carbamoyl)chroman-4-yl)carbamate]  21 µM
2. CC(=O)N1CCC(COC(=O)N[C@H]2CCOc3c(C(=O)Nc4ccc(F)c(F)c4)cccc32)C1 (single isomer, unassigned) [Compound 144]  5.4 µM
3. CC(=O)N1CCCC1COC(=O)N[C@H]1CCOc2c(C(=O)Nc3ccc(F)c(F)c3)cccc21 (single isomer, unassigned) [Compound 139]  4.6 µM
4. COC(=O)NC1CCN(C)c2c(C(=O)Nc3ccc(F)c(F)c3)cccc21 (single isomer, unassigned) [Compound 177, Methyl (8-((3,4-difluorophenyl)carbamoyl)-1-methyl-1,2,3,4-tetrahydroquinolin-4-yl)carbamate]  2.3 µM
5. COC(=O)N[C@H]1CCOc2c(C(=O)Nc3ccc(F)c(F)c3)cccc21 [Compound 8, methyl (S)-(8-((3,4-difluorophenyl)carbamoyl)chroman-4-yl)carbamate]  2.3 µM

Same assay, conditions: read-out: DE-19 bDNA EC50; HepDE19 cells, 7 day incubation, rcDNA by Quantigene 2.0 bDNA assay

In order of falling EC50:
1. O=C(N[C@H]1CCOc2c(C(=O)Nc3ccc(F)c(F)c3)cccc21)OC1CCOC1 (single isomer, unassigned) [Compound 25, Tetrahydrofuran-3-yl-(8-((3,4-difluorophenyl)carbamoyl)chroman-4-yl)carbamate]  23 µM
2. COC(=O)NC1CCN(C)c2c(C(=O)Nc3ccc(F)c(Cl)c3)cccc21 (single isomer, unassigned) [Compound 178, Methyl (8-((3-chloro-4-fluorophenyl)carbamoyl)-1-methyl-1,2,3,4-tetrahydroquinolin-4-yl)carbamate]  13 µM
3. O=C(N[C@H]1CCOc2c(C(=O)Nc3ccc(F)c(F)c3)cccc21)OC1CCOC1 (single isomer, unassigned) [Compound 26, Tetrahydrofuran-3-yl-(8-((3,4-difluorophenyl)carbamoyl)chroman-4-yl)carbamate]  7.4 µM
4. CC(=O)N1CCC(COC(=O)N[C@H]2CCOc3c(C(=O)Nc4ccc(F)c(F)c4)cccc32)C1 (single isomer, unassigned) [Compound 145]  7 µM
5. COC(=O)NC1CCN(C)c2c(C(=O)Nc3ccc(F)c(Cl)c3)cccc21 (single isomer, unassigned) [Compound 179, Methyl (8-((3-chloro-4-fluorophenyl)carbamoyl)-1-methyl-1,2,3,4-tetrahydroquinolin-4-yl)carbamate]  0.94 µM
